Laboratory results from the supplement of paper PMC10331698.
± gives the standard deviation of the averaged measurements.

Legend:
Test in all cases: level (log10 ratio to DMSO vehicle control); higher = higher biomarker level / cell amount than vehicle control
Conditions in all cases: in DMSO
[1] = compound: C=C(C)C(=O)OCCC(F)(F)C(F)(F)C(F)(F)C(F)(F)C(F)(C(F)(F)F)C(F)(F)F [(Perfluoro-5-methylhexyl)ethyl 2-methylprop-2-enoate]
Description: (§1)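 BioMAP Diversity Plus panel of 12 human primary cell co-culture systems (3C, 4H, LPS, SAg, BT, BF4T, BE3C, CASM3C, HDF3CGF, KF3CT, MyoF, Mphg). Compounds were added 1 h before stimulation and left for 24 h (MyoF 48 h; BT 72 h for soluble read-outs or 6 d for IgG). Biomarkers were read by ELISA, cytotoxicity by SRB, PBMC viability and proliferation by Alamar Blue. Each well value was divided by the mean of 8 DMSO control wells on the same plate and log10 transformed; duplicate blinded samples were tested at 4 concentrations.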

[2] = compound: C=CC(=O)OCC(F)(F)C(F)(F)C(F)(F)C(F)(F)C(F)(F)C(F)(F)C(F)(F)F [1H,1H-Perfluorooctyl acrylate]
Description: as §1

[3] = compound: C=CC(F)(F)C(F)(F)C(F)(F)C(F)(F)C(F)(F)C(F)(F)C(F)(F)C(F)(F)C=C [1,8-Divinylperfluorooctane]
Description: as §1

[4] = compound: COC(=O)CCC(F)(F)C(F)(F)C(F)(F)C(F)(F)F [Methyl 2H,2H,3H,3H-perfluoroheptanoate]
Description: as §1

[5] = compound: FC(F)(F)C(F)(F)C(F)(F)C(F)(F)C(F)(F)C(F)(F)C(F)(F)C(F)(F)CCS [2-(Perfluorooctyl)ethanthiol]
Description: as §1

Perfluoropropanoic acid = compound: O=C(O)C(F)(F)C(F)(F)F [Perfluoropropanoic acid]
Description: as §1

[6] = compound: OCC(F)(F)OC(F)(F)C(F)(F)OC(F)(F)CO [1H,1H,8H,8H-Perfluoro-3,6-dioxaoctane-1,8-diol]
Description: as §1

Test System	level (log10) ([1]; 6700 nM)	level (log10) ([1]; 20000 nM)	level (log10) ([2]; 6700 nM)	level (log10) ([2]; 20000 nM)	level (log10) ([2]; 60000 nM)	level (log10) ([3]; 6700 nM)	level (log10) ([3]; 20000 nM)	level (log10) ([4]; 6700 nM)	level (log10) ([4]; 20000 nM)	level (log10) ([4]; 60000 nM)	level (log10) ([5]; 6700 nM)	level (log10) ([5]; 20000 nM)	level (log10) (Perfluoropropanoic acid; 6700 nM)	level (log10) (Perfluoropropanoic acid; 20000 nM)	level (log10) (Perfluoropropanoic acid; 60000 nM)	level (log10) ([6]; 6700 nM)	level (log10) ([6]; 20000 nM)	level (log10) ([6]; 60000 nM)
BE3C:HLA-DR	-0.0115 ± 0.0078	-0.0045 ± 0.0078	-0.0055 ± 0.005	-0.0025 ± 0.005	0.0055 ± 0.012	0.021 ± 0.016	0.014	-0.016	0.004 ± 0.0028	-0.0235 ± 0.03	-0.0075 ± 0.0035	-0.0135 ± 0.0092	-0.026 ± 0.0085	-0.012 ± 0.024	0.016 ± 0.016	-0.0065 ± 0.025	-0.009 ± 0.021	-0.008 ± 0.0042
3C:SRB	-0.008 ± 0.0042	-0.0175 ± 0.0078	-0.002 ± 0.0099	0.0145 ± 0.011	0.015	0.0135 ± 0.0021	0.027 ± 0.0042	0.0125 ± 0.036	0.0085 ± 0.028	-0.004 ± 0.016	0.005 ± 0.0071	-0.013 ± 0.016	-0.0115 ± 0.0035	-0.009 ± 0.0028	-0.0065 ± 0.0021	-0.01 ± 0.0085	-0.0105 ± 0.0021	-0.0255 ± 0.0021
BF4T:uPA	-0.0295 ± 0.0064	-0.063 ± 0.0014	-0.002 ± 0.0014	0.0035 ± 0.00071	0.001 ± 0.0042	-0.0045 ± 0.0064	-0.0095 ± 0.012	-0.0055 ± 0.026	0.0015 ± 0.012	-0.0145 ± 0.005	-0.031 ± 0.011	-0.0285 ± 0.039	-0.0035 ± 0.033	0.0105 ± 0.037	0.019 ± 0.033	-0.0065 ± 0.028	-0.0065 ± 0.03	-0.007 ± 0.03
3C:HLA-DR	-0.004 ± 0.016	-0.023 ± 0.02	0.0085 ± 0.0092	0.0155 ± 0.0035	0.0205 ± 0.019	-0.0185 ± 0.028	-0.007 ± 0.013	-0.026 ± 0.0071	0.03 ± 0.027	0.0085 ± 0.032	-0.015 ± 0.018	-0.0235 ± 0.0078	-0.003 ± 0.0028	0.0035 ± 0.0035	0.011 ± 0.011	-0.0185 ± 0.012	-0.0095 ± 0.016	0.0005 ± 0.036
LPS:SRB	-0.001 ± 0.0028	-0.0085 ± 0.0021	-0.006 ± 0.0028	-0.0095 ± 0.0078	-0.012 ± 0.016	-0.005 ± 0.0057	0.013 ± 0.0099	0.006 ± 0.023	0.001 ± 0.011	-0.0045 ± 0.011	0.0025 ± 0.0078	-0.003 ± 0.014	-0.0125 ± 0.00071	-0.0035 ± 0.013	-0.0065 ± 0.0064	-0.0075 ± 0.012	-0.0125 ± 0.0092	-0.0205 ± 0.005
BF4T:PAI-I	-0.01 ± 0.018	-0.023 ± 0.0057	0.008 ± 0.0014	0 ± 0.0014	0.0025 ± 0.013	-0.01 ± 0.0057	0.0055 ± 0.0064	0.007 ± 0.025	0.0055 ± 0.012	-0.007 ± 0.0028	-0.0175 ± 0.0064	-0.0255 ± 0.005	-0.004 ± 0.023	0.01 ± 0.013	0.029 ± 0.044	-0.005 ± 0.02	-0.015 ± 0.011	-0.001 ± 0.013
LPS:IL-1alpha	-0.0515 ± 0.096	-0.0355 ± 0.023	0.0165 ± 0.018	0.033 ± 0.023	0.042 ± 0.025	0.0095 ± 0.019	0.0295 ± 0.012	-0.0265 ± 0.015	-0.0185 ± 0.018	0.0235 ± 0.016	-0.045 ± 0.0042	-0.012 ± 0.055	-0.047 ± 0.033	-0.0405 ± 0.037	-0.0165 ± 0.032	-0.0135 ± 0.00071	-0.022 ± 0.011	0.0345 ± 0.0092
4H:CD87/uPAR	0.0115 ± 0.037	0 ± 0.0071	-0.009 ± 0.062	0.0005 ± 0.037	-0.003 ± 0.018	-0.0125 ± 0.015	0.0215 ± 0.0064	0.0005 ± 0.019	0.021 ± 0.042	0.0065 ± 0.033	-0.0055 ± 0.0021	-0.0165 ± 0.0021	-0.0325 ± 0.025	-0.014 ± 0.011	0.0085 ± 0.016	0.015 ± 0.044	0.0265 ± 0.0035	0.0065 ± 0.044
BF4T:CCL26/Eotaxin-3	-0.0125 ± 0.0064	0.016 ± 0.044	-0.008 ± 0.016	-0.019 ± 0.03	-0.036 ± 0.031	-0.0405 ± 0.019	-0.0355 ± 0.013	-0.0095 ± 0.005	-0.0175 ± 0.0092	-0.016 ± 0.0042	-0.0585 ± 0.04	-0.037 ± 0.0099	-0.004 ± 0.031	-0.0105 ± 0.04	0.03 ± 0.044	0.0155 ± 0.0092	0.005 ± 0.035	0.024 ± 0.044
BE3C:CXCL11/I-TAC	0.005 ± 0.0099	0.0105 ± 0.0092	0.0115 ± 0.00071	0.016 ± 0.0099	0.009 ± 0.0014	0.011 ± 0.02	-0.002 ± 0.0014	-0.0175 ± 0.012	-0.011 ± 0.018	-0.0095 ± 0.00071	0.0035 ± 0.037	0.0175 ± 0.035	0.007 ± 0.0071	0.013 ± 0.014	0.029 ± 0.033	0.007 ± 0.0014	0.0185 ± 0.0021	0.009 ± 0.014
4H:CCL2/MCP-1	-0.0135 ± 0.011	0.002 ± 0.0042	-0.0145 ± 0.00071	-0.015 ± 0.0028	0.0165 ± 0.026	-0.0315 ± 0.005	0.013 ± 0.035	-0.048 ± 0.033	-0.0435 ± 0.025	0.0125 ± 0.023	-0.02 ± 0.017	0.0395 ± 0.035	-0.0455 ± 0.022	-0.0145 ± 0.039	0.0285 ± 0.039	-0.037 ± 0.041	-0.03 ± 0.013	0.008 ± 0.055
BE3C:CXCL10/IP-10	0.032 ± 0.031	0.022 ± 0.021	0.0315 ± 0.015	0.0195 ± 0.005	0.0235 ± 0.023	0.0075 ± 0.0021	0 ± 0.017	-0.001 ± 0.013	-0.004 ± 0.0057	-0.006 ± 0.0099	0.0405 ± 0.05	0.016 ± 0.058	-0.0125 ± 0.019	0.0035 ± 0.022	0.014 ± 0.025	0.004 ± 0.02	0.01 ± 0.0071	0.0105 ± 0.016
4H:CCL26/Eotaxin-3	0.042 ± 0.058	0.039 ± 0.02	0.002 ± 0.023	-0.002 ± 0.0057	-0.0005 ± 0.0021	0.013 ± 0.0085	0.0345 ± 0.013	-0.0075 ± 0.0064	0.0175 ± 0.0078	0.0025 ± 0.005	0.008 ± 0.017	-0.0145 ± 0.0064	-0.0115 ± 0.0092	-0.0045 ± 0.012	-0.015 ± 0.017	0.0015 ± 0.0021	0.0015 ± 0.0092	-0.0035 ± 0.00071
BE3C:CD54/ICAM-1	-0.0075 ± 0.0021	0.005 ± 0.0042	0.0055 ± 0.042	-0.011 ± 0.014	0.003 ± 0.014	0.0085 ± 0.015	0.0055 ± 0.013	-0.0075 ± 0.0092	0.0105 ± 0.018	0.002 ± 0.011	-0.0055 ± 0.028	-0.0055 ± 0.015	-0.025 ± 0.017	0 ± 0.0014	0.007 ± 0.016	0.0195 ± 0.013	0.0045 ± 0.015	0.0055 ± 0.022
SAg:CD69	-0.0095 ± 0.015	-0.0335 ± 0.033	-0.0205 ± 0.021	-0.024 ± 0.011	-0.035 ± 0.018	-0.042 ± 0.021	-0.012 ± 0.035	-0.0375 ± 0.035	-0.0225 ± 0.019	-0.0085 ± 0.05	-0.0165 ± 0.0092	-0.035 ± 0.0014	-0.0175 ± 0.005	-0.019 ± 0.0042	-0.008 ± 0.023	0.0065 ± 0.0064	0.015 ± 0.016	-0.0145 ± 0.013
BT:Secreted IgG	-0.0085 ± 0.044	-0.023 ± 0.0085	-0.0085 ± 0.015	-0.0455 ± 0.057	-0.132 ± 0.016	0.022 ± 0.0071	0.0255 ± 0.019	0.015 ± 0.017	-0.002 ± 0.0071	-0.025 ± 0.018	0.02 ± 0.0071	0.016 ± 0.0014	0.036 ± 0.028	0.03 ± 0.0057	-0.004 ± 0.057	-0.0135 ± 0.06	0.0085 ± 0.04	-0.054 ± 0.021
